{
  "source": "ChEMBL document CHEMBL4196156",
  "about": "“Allosteric Modulators of the M4 Muscarinic Acetylcholine Receptor” (ACS Med Chem Lett, 2018)",
  "data": [
    {"molecular_target": "T1, Muscarinic acetylcholine receptor M4 (Homo sapiens, UniProt P08173)", "T1 sequence (P08173 whole entry)": "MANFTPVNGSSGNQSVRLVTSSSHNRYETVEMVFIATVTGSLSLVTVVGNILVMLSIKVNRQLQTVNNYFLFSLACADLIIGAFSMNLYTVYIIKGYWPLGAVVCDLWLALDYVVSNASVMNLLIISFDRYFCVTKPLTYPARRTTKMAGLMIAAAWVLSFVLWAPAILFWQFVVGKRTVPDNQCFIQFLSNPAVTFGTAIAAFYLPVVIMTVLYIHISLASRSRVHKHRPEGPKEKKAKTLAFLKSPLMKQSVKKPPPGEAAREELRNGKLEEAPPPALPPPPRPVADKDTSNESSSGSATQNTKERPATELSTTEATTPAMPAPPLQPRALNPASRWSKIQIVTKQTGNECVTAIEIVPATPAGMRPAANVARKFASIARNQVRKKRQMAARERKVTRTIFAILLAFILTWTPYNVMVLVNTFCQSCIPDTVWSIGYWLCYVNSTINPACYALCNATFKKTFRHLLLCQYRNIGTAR", "test": "Positive allosteric modulation of human muscarinic acetylcholine receptor M4 expressed in CHO-K1 cells coexpressing Galphaqi5 assessed as increase in acetylcholine-induced […] incubated for 16 to 20 hrs measured for 3.5 to 4 mins by FLIPR assay", "assay_type": "functional, cell-based", "units": {"EC50": "nM"}, "values": [
      {"smiles": "COc1ccc(OC2CCN(c3nc(CO)nc(Cl)c3C)CC2)cn1", "EC50": 25},
      {"smiles": "Cc1cc2c(nc1N1CC[C@@H](Oc3ccc4c(cnn4C)c3)[C@@H](F)C1)CNC2=O", "EC50": 17},
      {"smiles": "COc1ccc(OC2CCN(c3nc4oc(=O)[nH]c(=O)c4c(Cl)c3C)CC2)cn1", "EC50": 15}
    ]}
  ]
}
